Experiment [1] concerns A549. The experiment in a line: Downregulation of XIAP mRNA expression level in human A549 cells at 0.1 to 1 uM for 24 hrs by qRT-PCR analysis. Format: functional, cell-based. Conditions: dose 0.1-1 µM. Background: Real-time PCR tracks product formation cycle by cycle.
Experiment [2] deals with A549. Put plainly: Induction of apoptosis in human A549 cells assessed as viable cells at 2.5 uM for 24 hrs by annexin V-PI staining based flow cytometric analysis (reference value: 96%). Conditions: read-out: Activity. The class given is functional. (In general: Flow cytometry measures light scatter and fluorescence of single cells or particles in a stream.)
The subject of experiment [3] is A549. Put plainly: Downregulation of c-MYC protein expression level in human A549 cells at 1 uM for 24 hrs by […] analysis. The class given is functional, cell-based.
Experiment [4] deals with NCI-H23. The experiment in a line: Downregulation of XIAP protein expression level in human NCI-H23 cells at 1 uM for 24 hrs by […] analysis. Format: functional, cell-based.
Experiment [5] has as its system NCI-H460. Put plainly: Induction of apoptosis in human NCI-H460 cells assessed as early apoptotic cells at 0.5 uM for 24 hrs by annexin V-PI staining based flow cytometric analysis (reference value: 0.2%). Format: functional.
Experiment [6] relates to NCI-H23. Put plainly: Downregulation of FLIP mRNA expression level in human NCI-H23 cells at 0.1 to 1 uM for 24 hrs by qRT-PCR analysis. The class given is functional, cell-based. Conditions: dose 0.1-1 µM.
Experiment [7] deals with NCI-H460. Put plainly: Induction of apoptosis in human NCI-H460 cells assessed as late apoptotic cells at 2.5 uM for 24 hrs by annexin V-PI staining based flow cytometric analysis (reference value: 3.0%). Format: functional.
The test system of experiment [8] is A549. The experiment in a line: Induction of apoptosis in human A549 cells assessed as early apoptotic cells at 0.5 uM for 24 hrs by annexin V-PI staining based flow cytometric analysis (reference value: 0.4%). Format: functional.
Experiment [9] concerns A549. The experiment in a line: Induction of cell cycle arrest in human A549 cells assessed as accumulation of cells at G0/G1 phase at 0.1 uM for 24 hrs by Click-iT EdU Alexa Fluor 647 flow cytometric assay kit analysis (reference value: 61%). The class given is functional.
Experiment [10] has as its system NCI-H1373. Put plainly: Induction of cell cycle arrest in human NCI-H1373 cells assessed as accumulation of cells at S phase at 0.25 uM for 24 hrs by Click-iT EdU Alexa Fluor 647 flow cytometric assay kit analysis (reference value: 45%). Format: functional.
Experiment [11] relates to NCI-H1373. Put plainly: Downregulation of XIAP mRNA expression level in human NCI-H1373 cells at 0.1 to 1 uM for 24 hrs by qRT-PCR analysis. The class given is functional, cell-based. Conditions: dose 0.1-1 µM.
For experiment [12], the system named is A549. Put plainly: Induction of cell cycle arrest in human A549 cells assessed as accumulation of cells at S phase at 0.5 uM for 24 hrs by Click-iT EdU Alexa Fluor 647 flow cytometric assay kit analysis (reference value: 35%). Format: functional.
For experiment [13], the system named is NCI-H1373. Put plainly: Induction of apoptosis in human NCI-H1373 cells assessed as necrotic cells at 2.5 uM for 24 hrs by annexin V-PI staining based flow cytometric analysis (reference value: 5.5%). Format: functional.
The subject of experiment [14] is NCI-H460. The experiment in a line: Antiproliferative activity against human NCI-H460 cells at 500 to 2500 nM in presence of TNF by cell titre glo assay. The class given is functional, cell-based. Conditions: dose 500-2500 nM.
Experiment [15] relates to NCI-H1373. Put plainly: Induction of cell cycle arrest in human NCI-H1373 cells assessed as accumulation of cells at G2/M phase at 0.5 uM for 24 hrs by Click-iT EdU Alexa Fluor 647 flow cytometric assay kit analysis (reference value: 13%). The class given is functional.
The subject of experiment [16] is A549. The experiment in a line: Induction of cell cycle arrest in human A549 cells assessed as accumulation of cells at G0/G1 phase at 0.5 uM for 24 hrs by Click-iT EdU Alexa Fluor 647 flow cytometric assay kit analysis (reference value: 61%). The class given is functional.
The subject of experiment [17] is NCI-H1373. Put plainly: Induction of TRAIL dependent apoptosis in human NCI-H1373 cells assessed as viable cells at 1 uM in presence of […] by annexin V-PI staining based flow cytometric analysis (reference value: 87.6%). Format: functional. Conditions: read-out: Activity.
For the next experiment, the system named is NCI-H2030. The experiment in a line: Induction of TRAIL dependent apoptosis in human NCI-H2030 cells by annexin V-PI staining based flow cytometric analysis. The class given is functional, cell-based.
The subject of experiment [18] is A549. Put plainly: Induction of apoptosis in human A549 cells assessed as late apoptotic cells at 2.5 uM for 24 hrs by annexin V-PI staining based flow cytometric analysis (reference value: 2.3%). The class given is functional.
The subject of experiment [19] is DV-90. The experiment in a line: Induction of apoptosis in human DV-90 cells assessed as early apoptotic cells at 2.5 uM for 48 hrs by annexin V-PI staining based flow cytometric analysis (reference value: 1.0%).
The subject of experiment [20] is NCI-H460. The experiment in a line: Induction of apoptosis in human NCI-H460 cells assessed as late apoptotic cells at 0.5 uM for 24 hrs by annexin V-PI staining based flow cytometric analysis (reference value: 3.7%). Format: functional.
For experiment [21], the system named is DV-90. Put plainly: Induction of apoptosis in human DV-90 cells assessed as necrotic cells at 2.5 uM for 24 hrs by annexin V-PI staining based flow cytometric analysis (reference value: 8.4%). The class given is functional.
The subject of experiment [22] is NCI-H1373. Put plainly: Induction of apoptosis in human NCI-H1373 cells assessed as necrotic cells at 0.5 uM for 24 hrs by annexin V-PI staining based flow cytometric analysis (reference value: 4.4%). Format: functional.
Experiment [23] has as its system NCI-H460. The experiment in a line: Induction of apoptosis in human NCI-H460 cells assessed as late apoptotic cells at 2.5 uM for 24 hrs by annexin V-PI staining based flow cytometric analysis (reference value: 3.7%). Format: functional.
Experiment [24] deals with DV-90. Put plainly: Induction of cell cycle arrest in human DV-90 cells assessed as accumulation of cells at G2/M phase at 0.25 uM for 24 hrs by Click-iT EdU Alexa Fluor 647 flow cytometric assay kit analysis (reference value: 21%). Format: functional.
Experiment [25] relates to NCI-H1373. The experiment in a line: Induction of cell cycle arrest in human NCI-H1373 cells assessed as accumulation of cells at G0/G1 phase at 0.25 uM for 24 hrs by Click-iT EdU Alexa Fluor 647 flow cytometric assay kit analysis (reference value: 45%). The class given is functional.
For experiment [26], the system named is NCI-H460. Put plainly: Induction of cell cycle arrest in human NCI-H460 cells assessed as accumulation of cells at G0/G1 phase at 0.1 uM for 24 hrs by Click-iT EdU Alexa Fluor 647 flow cytometric assay kit analysis (reference value: 45%). The class given is functional.
Experiment [27] deals with DV-90. Put plainly: Induction of cell cycle arrest in human DV-90 cells assessed as accumulation of cells at G2/M phase at 1 uM for 24 hrs by Click-iT EdU Alexa Fluor 647 flow cytometric assay kit analysis (reference value: 25%). The class given is functional.
Experiment [28] concerns DV-90. Put plainly: Induction of cell cycle arrest in human DV-90 cells assessed as accumulation of cells at G0/G1 phase at 0.25 uM for 24 hrs by Click-iT EdU Alexa Fluor 647 flow cytometric assay kit analysis (reference value: 45%). The class given is functional.
The test system of experiment [29] is NCI-H460. The experiment in a line: Induction of cell cycle arrest in human NCI-H460 cells assessed as accumulation of cells at G0/G1 phase at 1 uM for 24 hrs by Click-iT EdU Alexa Fluor 647 flow cytometric assay kit analysis (reference value: 45%). Format: functional.
The subject of experiment [30] is DV-90. Put plainly: Induction of cell cycle arrest in human DV-90 cells assessed as accumulation of cells at S phase at 1 uM for 24 hrs by Click-iT EdU Alexa Fluor 647 flow cytometric assay kit analysis (reference value: 30%). The class given is functional.
Experiment [31] has as its system DV-90. The experiment in a line: Induction of cell cycle arrest in human DV-90 cells assessed as accumulation of cells at G0/G1 phase at 0.5 uM for 24 hrs by Click-iT EdU Alexa Fluor 647 flow cytometric assay kit analysis (reference value: 45%). Format: functional.

Each structure is given as a SMILES string. Active and inactive are the calls of the source. The calls are words filed in the database; no cut-off is given here.

Take `Cc1sc2c(c1C)C(c1ccc(Cl)cc1)=N[C@@H](CC(=O)OC(C)(C)C)c1nnc(C)n1-2`: the result with A549 [1], with A549 [3], with NCI-H23 [4], with NCI-H23 [6], in the experiment on NCI-H1373 [11] and in the experiment with NCI-H460 [14] was Active. Besides, in the experiment with NCI-H2030, the outcome was Active. Besides, in the experiment on A549 [2], the viability at 2.5 µM stood at 97%. Besides, the Activity was 0.2% in the experiment on NCI-H460 [5]; 5.5% with NCI-H460 [7]; 0.1% with A549 [8]; 61% with A549 [9]; 21% with NCI-H1373 [10]; 33% in the experiment on A549 [12]. For the same compound, the Activity amounted to 17.2% with NCI-H1373 [13], 22% in the experiment with NCI-H1373 [15], 63% in the experiment with A549 [16] and 1.8% with A549 [18]. The viability at 1 µM in the experiment on NCI-H1373 [17] amounted to 17.8%.
For the compound `Cc1sc2c(c1C)C(c1ccc(Cl)cc1)=N[C@@H](CC(=O)Nc1ccc(O)cc1)c1nnc(C)n1-2` [BIRABRESIB], the Activity is given as 2.6% in the experiment on DV-90 [19]; 4.6% with NCI-H460 [20]; 33.7% in the experiment on DV-90 [21]; 9.6% with NCI-H1373 [22]; 5.1% in the experiment on NCI-H460 [23]; 26% with DV-90 [24].
Turning to `CCNC(=O)C[C@@H]1N=C(c2ccc(Cl)cc2)c2cc(OC)ccc2-n2c(C)nnc21` [MOLIBRESIB], the Activity in the experiment with NCI-H1373 [25] is 49%; in the experiment with NCI-H460 [26] it was 45%; in the experiment on DV-90 [27], 27%; in the experiment on DV-90 [28] it was 49%; in the experiment with NCI-H460 [29], 52%; with DV-90 [30], 22%. Also, the Activity in the experiment on DV-90 [31] is 47%.

The values above are taken from ChEMBL document CHEMBL5712891, “Inhibition of BET bromodomain-dependent XIAP and FLIP expression sensitizes KRAS-mutated NSCLC to pro-apoptotic agents” (Cell Death Dis, 2016).
